Measurements as given in patent US20080260876A1, “Garlic Extract Compositions, Uses And Preparations Thereof” (priority 2005, published 2008).

What was measured:
[1] = system: Podosphaera xanthii (syn. Sphaerotheca fuliginea); experiment: Foliar spray on powdery mildew-infected cucumber plants; conditions: for Percentage of reduction of cucumber powdery mildew: Table 5, 1/500 (w/v) in water
Description: Compositions 1 to 4 (Table 1) were applied by foliar spray 7 to 10 days after the inoculation of cucumber plants with powdery mildew spores (infected with 3-4×10^4 spores/mL of Podosphaera xanthii (syn. Sphaerotheca fuliginea)).
Each composition was sprayed once on cucumber leaves and disease assessment was performed after 3, 6, 8 and 12 days. […] For each composition, the assay was repeated three times and the results illustrated in Table 2 represent the average of these three assays.
As previously indicated, some garlic-based compositions are described in U.S. Pat. No. 6,231,865. Particular attention is paid to Samples 1 to 4 disclosed in column 2 of this document.

Oidium neolycopersici = experiment: Semi-commercial greenhouse trial, tomato powdery mildew; assay type: in vivo
Description: Surface-sterilized tomato seeds (cv. Trust) were sown in rock wool cubes and fertilized daily with a standard nutrient solution. Seedlings were grown for 4 wk on a greenhouse bench at 21-24° C. with a 16 h photoperiod and transplanted (at the early flower stage) into rook wool in 13.5 L plastic bags perforated on the upper face in order to insert two rock wool cubes per bag. Plants at the 12-15 leaf stage were inoculated by rubbing a piece of tomato leaf heavily infected by Oidium neolycopersici onto leaf 7. At the onset of the first powdery mildew colonies (after 7-10 days), plants were sprayed with each formulation or with sulphur (the currently applied fungicide in tomato greenhouses) while controls were sprayed with water. The treatments were arranged in a randomized complete block design with 6 plants per treatment and three replications. All treatments with the garlic compositions were repeated once a week.
The treatments included: 1) Dehydrated garlic extracts-chitosan lactate (composition 1); 2) Dehydrated garlic extracts alone (composition 2); 3) chitosan lactate alone (composition 3); 4) sulphur; 5) water; and 6) water+vegetable oil (composition 4).
Disease severity was assessed three and six days after each treatment and evaluated as percentage of leaf area covered by powdery mildew. The assessments were made on a “low” leaf level (about leaf 3), a “middle” leaf level (leaves 6 and 9) and a “high” leaf level (about leaf 12) on three leaves for each level. For each treatment, […] yield was evaluated on 3 plants per replication. Data were analyzed by analysis of variance using the SAS procedure (SAS Inst., Inc., Cary, N.C.). The LSMEANS option was used to generate the probability of difference between all the variables in the study. Single degrees of freedom orthogonal contrasts were used to compare effects of the composition vs. chitosan lactate alone, the composition vs. water or water and oil, and the composition vs. sulphur. It is of note that powdery mildew on tomato is much less aggressive than it is on cucumber.

[2] = 3 plants of tomato, cv. Trust, 14 weeks after harvest

Compound	Percentage of reduction of cucumber powdery mildew ([1]; 3 days)	Percentage of reduction of cucumber powdery mildew ([1]; 6 days)	Percentage of reduction of cucumber powdery mildew ([1]; 8 days)	Percentage of reduction of cucumber powdery mildew ([1]; 12 days)	Phytotoxicity on cucumber plants ([1]; days following the application)	Average fruit weight, class 1 (Oidium neolycopersici; [2])	Total fruit yield, class 1 (Oidium neolycopersici; [2])	Total number of fruits, class 1 (Oidium neolycopersici; [2])	Disease incidence after 14 weeks (% of infection) (Oidium neolycopersici; percentage of leaf area covered by powdery mildew, tomato cv. Trust)	Reduction of the incidence of powdery mildew in tomato (disease control) (Oidium neolycopersici; tomato greenhouse trial)
CCCCCCCCCCCCOS(=O)(=O)[O-].[Na+] [Sodium dodecyl sulfate]	100%	100%	100%	95%	phytoxicity developed					
S1SSSSSSS1 [Sulphur]						164 ± 3 g	16.3 ± 1.1 Kg/m^2	100 ± 5.0 tomatos/m^2	0.28 ± 0.08 % of infection	~100%
